The structures appear in SMILES notation. Starred links: 1 amine or outer side, 2 acyl side, 3 side chain; linkers in the order of their positions; H or OH if unused. Non-standard residues stand in square brackets, D forms with d. Residues, ends and D or L forms follow the SMILES beside them. Phe(4-(cis-4-COOH-cHex)) = N[C@@H](Cc1ccc([C@H]2CC[C@@H](C(=O)O)CC2)cc1)C(=O)O; Ala(piperidin-4-yl) = O=C([C@H](CC1CCN([*:3])CC1)N[*:1])[*:2]; Trp(βS-Me,4-F) = C[C@@H](c1c[nH]c2cccc(F)c12)[C@H](N)C(=O)O; Bip(4'-COOH) = N[C@@H](Cc1ccc(-c2ccc(C(=O)O)cc2)cc1)C(=O)O; dPro(4R-Bzl(4-F)) = O=C(O)[C@H]1C[C@@H](Cc2ccc(F)cc2)CN1; Ala(morpholin-4-yl) = N[C@@H](CN1CCOCC1)C(=O)O; Ala(piperazin-1-yl) = N[C@@H](CN1CCNCC1)C(=O)O; Ala(pyrimidin-5-yl) = N[C@@H](Cc1cncnc1)C(=O)O; Phe(4-COOH) = N[C@@H](Cc1ccc(C(=O)O)cc1)C(=O)O; Ala(4-Pyridazinyl) = N[C@@H](Cc1ccnnc1)C(=O)O; Ala(2-pyrazinyl) = N[C@@H](Cc1cnccn1)C(=O)O; Pro(cis-4-F) = O=C(O)[C@@H]1C[C@H](F)CN1; Ala(4-THP) = N[C@@H](CC1CCOCC1)C(=O)O; X10 = C[C@@](CCN)(N[*:1])C(=O)[*:2]; cisHyp = O=C(O)[C@@H]1C[C@H](O)CN1; d(αMeD) = C[C@@](N)(CC(=O)O)C(=O)O; 4Pal = N[C@@H](Cc1ccncc1)C(=O)O; Dab = NCC[C@H](N)C(=O)O; Aib = CC(C)(N)C(=O)O

In the assay the target is T1, IL-1β (Homo sapiens, UniProt P01584).
T1 construct: purchased BioLegend 579404
T1 sequence (P01584 117-269): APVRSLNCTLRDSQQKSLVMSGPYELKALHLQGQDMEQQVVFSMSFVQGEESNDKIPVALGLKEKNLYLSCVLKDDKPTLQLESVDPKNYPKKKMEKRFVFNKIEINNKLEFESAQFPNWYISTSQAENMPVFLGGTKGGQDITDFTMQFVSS
Kind of assay: IL-6 assay in MRC5 cells: inhibition of IL-1β induced IL-6 secretion (AlphaLISA). It counts as cell-based. The note with it: inhibition of IL-1β induced IL-6 secretion in MRC5 cells; read-out: MRC5 IC50. In outline:
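Compound was pre-incubated 1 h at ambient temperature with recombinant human IL-1β at 2λ EC80 before adding human lung fibroblast MRC5 cells (3000/well) in EMEM with 0.025% BSA. After overnight culture at 37 °C, 5% CO2, secreted IL-6 in conditioned medium was measured by AlphaLISA; IC50 from 4-parameter logistic fits.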
On the technique in general: Alpha assays give light when donor and acceptor beads are brought close together.
Regarding `C[C@@H](c1c[nH]c2cccc(F)c12)[C@@H]1NC(=O)[C@@H]2C[C@H](F)CN2C(=O)CNC(=O)[C@H](Cc2ccc(C(=O)O)cc2)NC(=O)[C@H](Cc2ccncc2)NC(=O)[C@H](Cc2ccc(-c3ccc(C(=O)O)cc3)cc2)NC(=O)[C@H]2C[C@@H](Cc3ccc(F)cc3)CN2C(=O)CNC(=O)[C@H](CCN)NC(=O)[C@H](CCC(N)=O)NC(=O)[C@H](Cc2ccnnc2)NC(=O)C(C)(C)NC(=O)[C@H](Cc2c[nH]c3ccccc23)NC(=O)[C@H](CCC(=O)O)NC(=O)C(C)(C)NC1=O` [Example 115] (cyclo([Bip(4'-COOH)][4Pal][Phe(4-COOH)]G[Pro(cis-4-F)][Trp(βS-Me,4-F)][Aib]EW[Aib][Ala(4-Pyridazinyl)]Q[Dab]G[dPro(4R-Bzl(4-F))])), the half-inhibitory concentration (IC50) (as a rule, the concentration at which inhibition is half-maximal) was determined as 0.023 nM.
Turning to `C[C@@H](c1c[nH]c2cccc(F)c12)[C@@H]1NC(=O)[C@@H]2C[C@H](F)CN2C(=O)CNC(=O)[C@H](Cc2ccc(C(=O)O)cc2)NC(=O)[C@H](Cc2ccnnc2)NC(=O)[C@H](Cc2ccc(-c3ccc(C(=O)O)cc3)cc2)NC(=O)[C@H]2C[C@@H](Cc3ccc(F)cc3)CN2C(=O)CNC(=O)[C@H](CCN)NC(=O)[C@H](CCC(N)=O)NC(=O)[C@H](Cc2cncnc2)NC(=O)C(C)(C)NC(=O)[C@H](Cc2c[nH]c3ccccc23)NC(=O)[C@H](CCC(=O)O)NC(=O)C(C)(C)NC1=O` [Example 116] (cyclo([Bip(4'-COOH)][Ala(4-Pyridazinyl)][Phe(4-COOH)]G[Pro(cis-4-F)][Trp(βS-Me,4-F)][Aib]EW[Aib][Ala(pyrimidin-5-yl)]Q[Dab]G[dPro(4R-Bzl(4-F))])), the IC50 is 0.04 nM.
Next, `C[C@@H](c1c[nH]c2cccc(F)c12)[C@@H]1NC(=O)[C@@H]2C[C@H](F)CN2C(=O)CNC(=O)[C@H](Cc2ccc(C(=O)O)cc2)NC(=O)[C@H](Cc2ccncc2)NC(=O)[C@H](Cc2ccc([C@H]3CC[C@@H](C(=O)O)CC3)cc2)NC(=O)[C@H]2C[C@@H](Cc3ccc(F)cc3)CN2C(=O)CNC(=O)[C@H](CCN)NC(=O)[C@H](CCC(N)=O)NC(=O)[C@H](Cc2cnccn2)NC(=O)C(C)(C)NC(=O)[C@H](Cc2c[nH]c3ccccc23)NC(=O)[C@H](CCC(=O)O)NC(=O)C(C)(C)NC1=O` [Example 117] (cyclo([Phe(4-(cis-4-COOH-cHex))][4Pal][Phe(4-COOH)]G[Pro(cis-4-F)][Trp(βS-Me,4-F)][Aib]EW[Aib][Ala(2-pyrazinyl)]Q[Dab]G[dPro(4R-Bzl(4-F))])): 0.027 nM.
For the compound `C[C@@H](c1c[nH]c2cccc(F)c12)[C@@H]1NC(=O)[C@@H]2C[C@H](F)CN2C(=O)CNC(=O)[C@H](Cc2ccc(C(=O)O)cc2)NC(=O)[C@H](Cc2ccncc2)NC(=O)[C@H](Cc2ccc(-c3ccc(C(=O)O)cc3)cc2)NC(=O)[C@H]2C[C@@H](Cc3ccc(F)cc3)CN2C(=O)CNC(=O)[C@H](CCN)NC(=O)[C@H](CCC(N)=O)NC(=O)[C@H](CC2CCOCC2)NC(=O)C(C)(C)NC(=O)[C@H](Cc2c[nH]c3ccccc23)NC(=O)[C@H](CCC(=O)O)NC(=O)C(C)(C)NC1=O` [Example 118] (cyclo([Bip(4'-COOH)][4Pal][Phe(4-COOH)]G[Pro(cis-4-F)][Trp(βS-Me,4-F)][Aib]EW[Aib][Ala(4-THP)]Q[Dab]G[dPro(4R-Bzl(4-F))])), the IC50 worked out at 0.016 nM.
For `C[C@@H](c1c[nH]c2cccc(F)c12)[C@@H]1NC(=O)[C@@H]2C[C@H](F)CN2C(=O)CNC(=O)[C@H](Cc2ccc(C(=O)O)cc2)NC(=O)[C@H](Cc2ccncc2)NC(=O)[C@H](Cc2ccc(-c3ccc(C(=O)O)cc3)cc2)NC(=O)[C@H]2C[C@@H](Cc3ccc(F)cc3)CN2C(=O)CNC(=O)[C@H](CCN)NC(=O)[C@H](CCC(N)=O)NC(=O)[C@H](CC2CCNCC2)NC(=O)C(C)(C)NC(=O)[C@H](Cc2c[nH]c3ccccc23)NC(=O)[C@H](CCC(=O)O)NC(=O)C(C)(C)NC1=O` [Example 119] (cyclo([Bip(4'-COOH)][4Pal][Phe(4-COOH)]G[Pro(cis-4-F)][Trp(βS-Me,4-F)][Aib]EW[Aib][Ala(piperidin-4-yl)]Q[Dab]G[dPro(4R-Bzl(4-F))])) the value was 0.016 nM; for `C[C@@H](c1c[nH]c2cccc(F)c12)[C@@H]1NC(=O)[C@@H]2C[C@H](F)CN2C(=O)CNC(=O)[C@H](Cc2ccc(C(=O)O)cc2)NC(=O)[C@H](Cc2ccncc2)NC(=O)[C@H](Cc2ccc(-c3ccc(C(=O)O)cc3)cc2)NC(=O)[C@H]2C[C@@H](Cc3ccc(F)cc3)CN2C(=O)CNC(=O)[C@H](CCN)NC(=O)[C@H](CCC(N)=O)NC(=O)[C@H](CN2CCNCC2)NC(=O)C(C)(C)NC(=O)[C@H](Cc2c[nH]c3ccccc23)NC(=O)[C@H](CCC(=O)O)NC(=O)C(C)(C)NC1=O` [Example 120] (cyclo([Bip(4'-COOH)][4Pal][Phe(4-COOH)]G[Pro(cis-4-F)][Trp(βS-Me,4-F)][Aib]EW[Aib][Ala(piperazin-1-yl)]Q[Dab]G[dPro(4R-Bzl(4-F))])), 0.014 nM; for `C[C@@H](c1c[nH]c2cccc(F)c12)[C@@H]1NC(=O)[C@@H]2C[C@H](F)CN2C(=O)CNC(=O)[C@H](Cc2ccc(C(=O)O)cc2)NC(=O)[C@H](Cc2ccncc2)NC(=O)[C@H](Cc2ccc(-c3ccc(C(=O)O)cc3)cc2)NC(=O)[C@H]2C[C@@H](Cc3ccc(F)cc3)CN2C(=O)CNC(=O)[C@H](CO)NC(=O)[C@H](CCC(N)=O)NC(=O)[C@H](CC2CCNCC2)NC(=O)C(C)(C)NC(=O)[C@H](Cc2c[nH]c3ccccc23)NC(=O)[C@H](CCC(=O)O)NC(=O)C(C)(C)NC1=O` [Example 121] (cyclo([Bip(4'-COOH)][4Pal][Phe(4-COOH)]G[Pro(cis-4-F)][Trp(βS-Me,4-F)][Aib]EW[Aib][Ala(piperidin-4-yl)]QSG[dPro(4R-Bzl(4-F))])), 0.029 nM.
Next, `C[C@@H](c1c[nH]c2cccc(F)c12)[C@@H]1NC(=O)[C@@H]2C[C@H](F)CN2C(=O)CNC(=O)[C@H](Cc2ccc(C(=O)O)cc2)NC(=O)[C@H](Cc2ccncc2)NC(=O)[C@H](Cc2ccc(-c3ccc(C(=O)O)cc3)cc2)NC(=O)[C@H]2C[C@@H](Cc3ccc(F)cc3)CN2C(=O)CNC(=O)[C@H](CO)NC(=O)[C@H](CCC(N)=O)NC(=O)[C@H](CN2CCNCC2)NC(=O)C(C)(C)NC(=O)[C@H](Cc2c[nH]c3ccccc23)NC(=O)[C@H](CCC(=O)O)NC(=O)C(C)(C)NC1=O` [Example 122] (cyclo([Bip(4'-COOH)][4Pal][Phe(4-COOH)]G[Pro(cis-4-F)][Trp(βS-Me,4-F)][Aib]EW[Aib][Ala(piperazin-1-yl)]QSG[dPro(4R-Bzl(4-F))])): 0.019 nM.
Next, `C[C@@H](c1c[nH]c2cccc(F)c12)[C@@H]1NC(=O)[C@@H]2C[C@H](F)CN2C(=O)CNC(=O)[C@H](Cc2ccc(C(=O)O)cc2)NC(=O)[C@H](Cc2ccncc2)NC(=O)[C@H](Cc2ccc(-c3ccc(C(=O)O)cc3)cc2)NC(=O)[C@H]2C[C@@H](Cc3ccc(F)cc3)CN2C(=O)CNC(=O)[C@H](CO)NC(=O)[C@H](CCC(N)=O)NC(=O)[C@H](CN2CCOCC2)NC(=O)C(C)(C)NC(=O)[C@H](Cc2c[nH]c3ccccc23)NC(=O)[C@H](CCC(=O)O)NC(=O)C(C)(C)NC1=O` [Example 125] (cyclo([4Pal][Phe(4-COOH)]G[Pro(cis-4-F)][Trp(βS-Me,4-F)][Aib]EW[Aib][Ala(morpholin-4-yl)]QSG[dPro(4R-Bzl(4-F))][Bip(4'-COOH)])): 0.041 nM.
`C[C@@H](c1c[nH]c2cccc(F)c12)[C@@H]1NC(=O)[C@@H]2C[C@H](O)CN2C(=O)CNC(=O)[C@H](Cc2ccc(C(=O)O)cc2)NC(=O)[C@H](Cc2ccncc2)NC(=O)[C@H](Cc2ccc(-c3ccc(C(=O)O)cc3)cc2)NC(=O)[C@H]2C[C@@H](Cc3ccc(F)cc3)CN2C(=O)CNC(=O)[C@H](CCN)NC(=O)[C@H](CCC(N)=O)NC(=O)[C@H](Cc2cncnc2)NC(=O)C(C)(C)NC(=O)[C@H](Cc2c[nH]c3ccccc23)NC(=O)[C@H](CO)NC(=O)C(C)(C)NC1=O` [Example 127] (cyclo([Bip(4'-COOH)][4Pal][Phe(4-COOH)]G[cisHyp][Trp(βS-Me,4-F)][Aib]SW[Aib][Ala(pyrimidin-5-yl)]Q[Dab]G[dPro(4R-Bzl(4-F))])): the half-maximal inhibitory concentration (IC50) is 0.013 nM.
For `C[C@@H](c1c[nH]c2cccc(F)c12)[C@@H]1NC(=O)[C@@H]2C[C@H](F)CN2C(=O)CNC(=O)[C@H](Cc2ccc(C(=O)O)cc2)NC(=O)[C@H](Cc2ccncc2)NC(=O)[C@H](Cc2ccc(-c3ccc(C(=O)O)cc3)cc2)NC(=O)[C@H]2C[C@@H](Cc3ccc(F)cc3)CN2C(=O)CNC(=O)[C@H](CCN)NC(=O)[C@H](CCC(N)=O)NC(=O)[C@H](Cc2cncnc2)NC(=O)[C@@](C)(CC(=O)O)NC(=O)[C@H](Cc2c[nH]c3ccccc23)NC(=O)[C@H](CO)NC(=O)C(C)(C)NC1=O` [Example 128] (cyclo([Bip(4'-COOH)][4Pal][Phe(4-COOH)]G[Pro(cis-4-F)][Trp(βS-Me,4-F)][Aib]SW[d(αMeD)][Ala(pyrimidin-5-yl)]Q[Dab]G[dPro(4R-Bzl(4-F))])) the value was 0.009 nM; for `C[C@@H](c1c[nH]c2cccc(F)c12)[C@@H]1NC(=O)[C@@H]2C[C@H](F)CN2C(=O)CNC(=O)[C@H](Cc2ccc(C(=O)O)cc2)NC(=O)[C@H](Cc2ccncc2)NC(=O)[C@H](Cc2ccc(-c3ccc(C(=O)O)cc3)cc2)NC(=O)[C@H]2C[C@@H](Cc3ccc(F)cc3)CN2C(=O)CNC(=O)[C@H](CCN)NC(=O)[C@H](CCC(N)=O)NC(=O)[C@H](Cc2cncnc2)NC(=O)C(C)(C)NC(=O)[C@H](Cc2c[nH]c3ccccc23)NC(=O)[C@H](CO)NC(=O)[C@](C)(CCN)NC1=O` [Example 129] (cyclo([Bip(4'-COOH)][4Pal][Phe(4-COOH)]G[Pro(cis-4-F)][Trp(βS-Me,4-F)][X10]SW[Aib][Ala(pyrimidin-5-yl)]Q[Dab]G[dPro(4R-Bzl(4-F))])), 0.019 nM.
